Test results taken from patent publication US20230365563A1, “QUINAZOLINE COMPOUND AND APPLICATION THEREOF” (SHANGHAI PHARMACEUTICALS HOLDING CO., LTD., priority 2020, published 2023).
Where a name gives a salt, the structure may show the parent alone.

Legend:
[1] = target: T1, KRAS_WT and SOS1 (Homo sapiens, UniProt P01116); experiment: Inhibition of KRAS_WT/SOS1 binding (Cisbio binding kit, 665/615 ratio), Effect Embodiment C; conditions: read-out: GTP-KRAS-WT:SOS1 IC50
T1 construct: purchased
T1 sequence (P01116 1-188 isoform P01116-2): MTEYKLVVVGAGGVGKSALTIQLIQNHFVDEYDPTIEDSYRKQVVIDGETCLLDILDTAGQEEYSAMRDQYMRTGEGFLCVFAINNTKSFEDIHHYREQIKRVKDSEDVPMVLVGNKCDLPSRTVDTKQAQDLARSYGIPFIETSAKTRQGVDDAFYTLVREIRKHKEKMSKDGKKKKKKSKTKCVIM
Procedure, shortened: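 Compounds tested as 3-fold, 11-point dilutions in duplicate at 1% DMSO final against the KRAS_WT/SOS1 binding system. IC50 derived by nonlinear regression fit.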

[2] = target: T2, KRAS-G12D and SOS1 (Homo sapiens, UniProt P01116, G12D); experiment: Inhibition of KRAS-G12D/SOS1 binding (Cisbio binding kit, 665/615 ratio), Effect Embodiment A; conditions: read-out: GTP-KRAS-G12D:SOS1 IC50
T2 construct: purchased
T2 sequence (P01116 1-188 isoform P01116-2 G12D): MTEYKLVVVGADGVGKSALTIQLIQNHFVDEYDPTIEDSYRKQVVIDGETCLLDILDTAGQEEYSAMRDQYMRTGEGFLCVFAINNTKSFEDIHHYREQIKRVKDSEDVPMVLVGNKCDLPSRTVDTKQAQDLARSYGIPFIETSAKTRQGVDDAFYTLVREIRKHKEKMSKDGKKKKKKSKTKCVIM
Procedure, shortened: (§1)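 Compounds are tested over eleven threefold dilution steps in duplicate, with final DMSO at 1%.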

[3] = target: T3, KRAS_G12D and cRAF (Homo sapiens, UniProt P01116, G12D); experiment: Inhibition of KRAS_G12D/cRAF binding (Cisbio binding kit, 665/615 ratio), Effect Embodiment B; conditions: read-out: GTP-KRAS-G12D:CRAF IC50
T3 construct: purchased
T3 sequence (P01116 1-188 isoform P01116-2 G12D): as above
Procedure, shortened: as §1

Compound	IC50 [1] [nM]	IC50 [2] [nM]	IC50 [3] [nM]
CCc1c(F)ccc2cc(O)cc(-c3c(F)cc4c(N5CC6CCC(C5)N6)nc(OCCCN5C[C@@H](C)O[C@@H](C)C5)nc4c3F)c12 (single isomer, unassigned) [Compound 250a, (S or R)-4-(4-((1R,5S)-3,8-diazacyclo[3.2.1]octan-3-yl)-2-(3-((2R,6S)-2,6-dimethylmorpholinyl)propoxy)-6,8-difluoroquinazolin-7-yl)-5-ethyl-6-fluoronaphthalen-2-ol formate]	75.2	8.42	14.6
C#Cc1c(F)ccc2cc(O)cc(-c3c(Cl)cc4c(N5CC6CCC(C5)N6)nc(OCCCN5C6CCC5COC6)nc4c3F)c12 (single isomer, unassigned) [Compound 255b, (4R or 4S)-4-(2-(3-(3-oxa-8-azabicyclo[3.2.1]octan-8-yl)propoxy)-4-(1R,5S)-3,8-diazabicyclo[3.2.1]octan-3-yl)-6-chloro-8-fluoroquinazolin-7-yl)-5-ethynyl-6-fluoronaphthalen-2-ol diformate]	75.6	4.32	13.2
CO[C@@H](COc1nc(N2CC3CCC(C2)N3)c2cc(Cl)c(-c3cc(O)cc4ccccc34)c(F)c2n1)CN1C2CCCC1CC2 (single isomer, unassigned) [Compound 257, (4S or 4R)-4-(2-((2R)-3-(8-azabicyclo[3.2.1]octan-8-yl)-2-methoxypropoxy)-4-((1R,5S)-3,8-diazabicyclo[3.2.1]octan-3-yl)-6-chloro-8-fluoroquinazolin-7-yl)naphthalen-2-ol formate]	> 10000	64.8	296
CO[C@H]1CCN(CCCOc2nc(N3CC4CCC(C3)N4)c3cc(Cl)c(-c4cc(O)cc5ccccc45)c(F)c3n2)[C@H](C)C1 (single isomer, unassigned) [Compound 258, 4-((S or R)-4-((1R,5S)-3,8-diazacyclo[3.2.1]octan-3-yl)-6-chloro-8-fluoro-2-(3-((2R,4S)-4-methoxy-2-methylpiperidin-1-yl)propoxy)quinazolin-7-yl)naphthalen-2-ol diformate]	6130	26.9	219
Oc1cc(-c2c(Cl)cc3c(N4CC5CCC(C4)N5)nc(OCCCN4CCC5(CCOCC5)C4)nc3c2F)c2ccccc2c1 (single isomer, unassigned) [Compound 259, 4-((S or R)-2-(3-(8-oxa-2-azaspiro[4.5]decan-2-yl)propoxy)-4-((1R,5S)-3,8-diazacyclo[3.2.1]octan-3-yl)-6-chloro-8-fluoroquinazolin-7-yl)naphthalen-2-ol formate]	1470	25.3	146
Oc1cc(-c2c(Cl)cc3c(N4CC5CCC(C4)N5)nc(OCC45CCN(CC4)CC5)nc3c2F)c2ccccc2c1 (single isomer, unassigned) [Compound 260, 4-((S or R)-4-((1R,5S)-3,8-diazacyclo[3.2.1]octan-3-yl)-6-chloro-8-fluoro-2-(quinin-4-ylmethoxy)quinazolin-7-yl)naphthalen-2-ol diformate]	4420	25.9	157
Oc1cc(-c2c(Cl)cc3c(N4CC5CCC(C4)N5)nc(OCCCN4CCC5(CCOC5)CC4)nc3c2F)c2ccccc2c1 (single isomer, unassigned) [Compound 261, 4-((S or R)-2-(3-(2-oxa-8-azaspiro[4.5]decan-8-yl)propoxy)-4-((1R,5S)-3,8-diazacyclo[3.2.1]octan-3-yl)-6-chloro-8-fluoroquinazolin-7-yl)naphthalen-2-ol diformate]	1080	18.7	102
Oc1cc(-c2c(Cl)cc3c(N4CC5CCC(C4)N5)nc(OCCCN4CCC5(CC4)COC5)nc3c2F)c2ccccc2c1 (single isomer, unassigned) [Compound 262, 4-((S or R)-2-(3-(2-oxa-7-azaspiro[3.5]nonan-7-yl)propoxy)-4-((1R,5S)-3,8-diazacyclo[3.2.1]octan-3-yl)-6-chloro-8-fluoroquinazolin-7-yl)naphthalen-2-ol diformate]	1660	24.3	141
Oc1cc(-c2c(Cl)cc3c(N4CC5CCC(C4)N5)nc(OCCCN4CC5(CCOC5)C4)nc3c2F)c2ccccc2c1 (single isomer, unassigned) [Compound 263, 4-((S or R)-2-(3-(6-oxa-2-azaspiro[3.4]octan-2-yl)propoxy)-4-((1R,5S)-3,8-diazacyclo[3.2.1]octan-3-yl)-6-chloro-8-fluoroquinazolin-7-yl)naphthalen-2-ol formate]	863	23.1	118
Oc1cc(-c2c(Cl)cc3c(N4CC5CCC(C4)N5)nc(OCC4CCC5COCCN5C4)nc3c2F)c2ccccc2c1 (single isomer, unassigned) [Compound 264a, 4-((S or R)-4-((1R,5S)-3,8-diazacyclo[3.2.1]octan-3-yl)-6-chloro-8-fluoro-2-((7S or 7R, 9aS or 9aR)-octahydropyridine[2,1-c][1,4]oxazin-7-yl)methoxy)quinazolin-7-yl)naphthalen-2-ol formate]	342	11.7	32.1
Oc1cc(-c2c(Cl)cc3c(N4CC5CCC(C4)N5)nc(OCC4CCC5COCCN5C4)nc3c2F)c2ccccc2c1 (single isomer, unassigned) [Compound 264b, 4-((R or S)-4-((1R,5S)-3,8-diazacyclo[3.2.1]octan-3-yl)-6-chloro-8-fluoro-2-((7R or 7S, 9aR or 9aS)-octahydropyridine[2,1-c][1,4]oxazin-7-yl)methoxy)quinazolin-7-yl)naphthalen-2-ol formate]	196	19.3	101
CC1OCCN(CCCOc2nc(N3CC4CCC(C3)N4)c3cc(Cl)c(-c4cc(O)cc5ccccc45)c(F)c3n2)C1C (single isomer, unassigned) [Compound 265a, 4-((R or S)-4-((1R,5S)-3,8-diazabicyclo[3.2.1]octan-3-yl)-6-chloro-2-(3-((2R or 2S, 3S or 3R)-2,3-dimethylmorpholinyl)propoxy)-8-fluoroquinazolin-7-yl)naphthalen-2-ol diformate]	5830	91.2	286
CC1OCCN(CCCOc2nc(N3CC4CCC(C3)N4)c3cc(Cl)c(-c4cc(O)cc5ccccc45)c(F)c3n2)C1C (single isomer, unassigned) [Compound 265b, 4-((R or S)-4-((1R,5S)-3,8-diazabicyclo[3.2.1]octan-3-yl)-6-chloro-2-(3-((2S or 2R, 3R or 3S)-2,3-dimethylmorpholinyl)propoxy)-8-fluoroquinazolin-7-yl)naphthalen-2-ol diformate]	7850	59.6	199
CC1OCCN(CCCOc2nc(N3CC4CCC(C3)N4)c3cc(Cl)c(-c4cc(O)cc5ccccc45)c(F)c3n2)C1C (single isomer, unassigned) [Compound 265c, 4-((R or S)-4-((1R,5S)-3,8-diazabicyclo[3.2.1]octan-3-yl)-6-chloro-2-(3-((2S or 2R, 3S or 3R)-(2,3-dimethylmorpholinyl)propoxy)-8-fluoroquinazolin-7-yl)naphthalen-2-ol diformate]	1280	49.8	135
